Values after ≈ are worked out from the molar mass of the structure shown. Active and inactive are the calls of the source. The rule behind the calls is not given here.
Biological target: not listed separately
Test: Inhibition of bacterial Metallo-beta-lactamase IMP-1 using nitrocefin as substrate pre-incubated for 15 mins followed by substrate addition by microplate reader
Set-up: species or system Bacteria
Details: not given

For `CC/C=C/C1=C(CCC)C(=O)OC1=O`, which IC50 is on record?
The IC50 was 3 µg/mL (≈ 15.4 µM).

Test system: Escherichia coli
Test: Antibacterial activity against Escherichia coli KB366 expressing IMP-1 assessed as inhibition of bacterial growth at 10 ug in presence of meropenem incubated overnight by paper disk method
Assay type: functional
Details: read-out: IZ

For `CC/C=C/C1=C(CCC)C(=O)OC1=O`, which zone of inhibition at 10 µg/disc is on record?
Its zone of inhibition at 10 µg/disc is 24 mm.

Test system: Escherichia coli
Test: Antibacterial activity against Escherichia coli KB366 expressing IMP-1 assessed as inhibition of bacterial growth at 3 ug in presence of meropenem incubated overnight by paper disk method
Assay type: functional
Details: read-out: IZ

For `CC/C=C/C1=C(CCC)C(=O)OC1=O`, which zone of inhibition at 3 µg/disc is on record?
Its zone of inhibition at 3 µg/disc is 18 mm.

Test system: Escherichia coli
Test: Antibacterial activity against Escherichia coli KB366 expressing IMP-1 assessed as inhibition of bacterial growth at 1 ug in presence of meropenem incubated overnight by paper disk method
Assay type: functional
Details: read-out: IZ

With `CC/C=C/C1=C(CCC)C(=O)OC1=O` as the compound, how does the zone of inhibition at 1 µg/disc read?
The zone of inhibition at 1 µg/disc was 17 mm.

Test system: Escherichia coli
Test: Antibacterial activity against Escherichia coli KB366 expressing IMP-1 assessed as inhibition of bacterial growth at 0.3 ug in presence of meropenem incubated overnight by paper disk method
Assay type: functional
Details: read-out: IZ

With `CC/C=C/C1=C(CCC)C(=O)OC1=O` as the compound, how does the zone of inhibition at 0.3 µg/disc read?
The zone of inhibition at 0.3 µg/disc was 15 mm.

Test system: Escherichia coli
Test: Antibacterial activity against Escherichia coli KB366 expressing IMP-1 assessed as inhibition of bacterial growth at 0.1 ug in presence of meropenem incubated overnight by paper disk method
Assay type: functional
Details: read-out: IZ

For `CC/C=C/C1=C(CCC)C(=O)OC1=O`, which zone of inhibition at 0.1 µg/disc is on record?
The zone of inhibition at 0.1 µg/disc was 13 mm.

Test system: Escherichia coli
Test: Antibacterial activity against Escherichia coli KB366 expressing IMP-1 assessed as inhibition of bacterial growth at 0.03 ug in presence of meropenem incubated overnight by paper disk method
Assay type: functional
Details: read-out: IZ

Which zone of inhibition at 0.03 µg/disc does the source give for `CC/C=C/C1=C(CCC)C(=O)OC1=O` here?
Its zone of inhibition at 0.03 µg/disc is 9 mm.

Test system: Escherichia coli
Test: Antibacterial activity against Escherichia coli KB366 expressing IMP-1 assessed as inhibition of bacterial growth at 0.01 ug in presence of meropenem incubated overnight by paper disk method
Assay type: functional
Details: read-out: IZ

Which zone of inhibition at 0.01 µg/disc does the source give for `CC/C=C/C1=C(CCC)C(=O)OC1=O` here?
Its zone of inhibition at 0.01 µg/disc is 9 mm.

Test system: Escherichia coli
Test: Antibacterial activity against Escherichia coli KB366 expressing IMP-1 assessed as inhibition of bacterial growth at 30 ug in absence of meropenem incubated overnight by paper disk method
Assay type: functional, organism-based
Details: dose 30.0 µg

Which “inhibition zone (IZ)” value does the source give for `CC/C=C/C1=C(CCC)C(=O)OC1=O` here?
Its value is “inactive”.

Test system: Escherichia coli
Test: Antibacterial activity against Escherichia coli KB366 expressing IMP-1 assessed as inhibition of bacterial growth at 10 ug in absence of meropenem incubated overnight by paper disk method
Assay type: functional, organism-based
Details: dose 10.0 µg

With `CC/C=C/C1=C(CCC)C(=O)OC1=O` as the compound, how does the “inhibition zone (IZ)” value read?
Its value is “inactive”.

Test system: Escherichia coli
Test: Antibacterial activity against Escherichia coli KB366 expressing IMP-1 assessed as inhibition of bacterial growth at 3 ug in absence of meropenem incubated overnight by paper disk method
Assay type: functional, organism-based
Details: dose 3.0 µg

Which “inhibition zone (IZ)” value does the source give for `CC/C=C/C1=C(CCC)C(=O)OC1=O` here?
Its value is “inactive”.

Test system: Escherichia coli
Test: Antibacterial activity against Escherichia coli KB366 expressing IMP-1 assessed as inhibition of bacterial growth at 1 ug in absence of meropenem incubated overnight by paper disk method
Assay type: functional, organism-based
Details: dose 1.0 µg

Which “inhibition zone (IZ)” value does the source give for `CC/C=C/C1=C(CCC)C(=O)OC1=O` here?
Its value is “inactive”.

Test system: Escherichia coli
Test: Antibacterial activity against Escherichia coli KB366 expressing IMP-1 assessed as inhibition of bacterial growth at 0.3 ug in absence of meropenem incubated overnight by paper disk method
Assay type: functional, organism-based
Details: dose 0.3 µg

For `CC/C=C/C1=C(CCC)C(=O)OC1=O`, which “inhibition zone (IZ)” value is on record?
The value was “inactive”.

Test system: Escherichia coli
Test: Antibacterial activity against Escherichia coli KB366 expressing IMP-1 assessed as inhibition of bacterial growth at 0.1 ug in absence of meropenem incubated overnight by paper disk method
Assay type: functional, organism-based
Details: dose 0.1 µg

Which “inhibition zone (IZ)” value does the source give for `CC/C=C/C1=C(CCC)C(=O)OC1=O` here?
The value was “inactive”.

Test system: Escherichia coli
Test: Antibacterial activity against Escherichia coli KB366 expressing IMP-1 assessed as inhibition of bacterial growth at 0.03 ug in absence of meropenem incubated overnight by paper disk method
Assay type: functional, organism-based
Details: dose 0.03 µg

For `CC/C=C/C1=C(CCC)C(=O)OC1=O`, which “inhibition zone (IZ)” value is on record?
The value was “inactive”.

Test system: Escherichia coli
Test: Antibacterial activity against Escherichia coli KB366 expressing IMP-1 assessed as inhibition of bacterial growth at 0.01 ug in absence of meropenem incubated overnight by paper disk method
Assay type: functional, organism-based
Details: dose 0.01 µg

With `CC/C=C/C1=C(CCC)C(=O)OC1=O` as the compound, how does the “inhibition zone (IZ)” value read?
The value was “inactive”.

Test system: Pseudomonas aeruginosa
Test: Antibacterial activity against Pseudomonas aeruginosa KB367 expressing IMP-1 assessed as inhibition of bacterial growth at 30 ug in presence of meropenem incubated overnight by paper disk method
Assay type: functional
Details: read-out: IZ

Which zone of inhibition at 30 µg/disc does the source give for `CC/C=C/C1=C(CCC)C(=O)OC1=O` here?
Its zone of inhibition at 30 µg/disc is 10 mm.

Test system: Pseudomonas aeruginosa
Test: Antibacterial activity against Pseudomonas aeruginosa KB367 expressing IMP-1 assessed as inhibition of bacterial growth at 10 ug in presence of meropenem incubated overnight by paper disk method
Assay type: functional
Details: dose 10.0 µg

With `CC/C=C/C1=C(CCC)C(=O)OC1=O` as the compound, how does the “inhibition zone (IZ)” value read?
The value was “inactive”.

Test system: Pseudomonas aeruginosa
Test: Antibacterial activity against Pseudomonas aeruginosa KB367 expressing IMP-1 assessed as inhibition of bacterial growth at 3 ug in presence of meropenem incubated overnight by paper disk method
Assay type: functional
Details: dose 3.0 µg

With `CC/C=C/C1=C(CCC)C(=O)OC1=O` as the compound, how does the “inhibition zone (IZ)” value read?
The value was “inactive”.

Test system: Pseudomonas aeruginosa
Test: Antibacterial activity against Pseudomonas aeruginosa KB367 expressing IMP-1 assessed as inhibition of bacterial growth at 1 ug in presence of meropenem incubated overnight by paper disk method
Assay type: functional
Details: dose 1.0 µg

Which “inhibition zone (IZ)” value does the source give for `CC/C=C/C1=C(CCC)C(=O)OC1=O` here?
The value was “inactive”.

Test system: Pseudomonas aeruginosa
Test: Antibacterial activity against Pseudomonas aeruginosa KB367 expressing IMP-1 assessed as inhibition of bacterial growth at 0.3 ug in presence of meropenem incubated overnight by paper disk method
Assay type: functional, organism-based
Details: dose 0.3 µg

Which “inhibition zone (IZ)” value does the source give for `CC/C=C/C1=C(CCC)C(=O)OC1=O` here?
Its value is “inactive”.

Test system: Pseudomonas aeruginosa
Test: Antibacterial activity against Pseudomonas aeruginosa KB367 expressing IMP-1 assessed as inhibition of bacterial growth at 0.1 ug in presence of meropenem incubated overnight by paper disk method
Assay type: functional, organism-based
Details: dose 0.1 µg

For `CC/C=C/C1=C(CCC)C(=O)OC1=O`, which “inhibition zone (IZ)” value is on record?
Its value is “inactive”.

Test system: Pseudomonas aeruginosa
Test: Antibacterial activity against Pseudomonas aeruginosa KB367 expressing IMP-1 assessed as inhibition of bacterial growth at 100 ug in absence of meropenem incubated overnight by paper disk method
Assay type: functional, organism-based
Details: dose 100.0 µg

Which “inhibition zone (IZ)” value does the source give for `CC/C=C/C1=C(CCC)C(=O)OC1=O` here?
The value was “inactive”.

Test system: Pseudomonas aeruginosa
Test: Antibacterial activity against Pseudomonas aeruginosa KB367 expressing IMP-1 assessed as inhibition of bacterial growth at 30 ug in absence of meropenem incubated overnight by paper disk method
Assay type: functional, organism-based
Details: dose 30.0 µg

With `CC/C=C/C1=C(CCC)C(=O)OC1=O` as the compound, how does the “inhibition zone (IZ)” value read?
The value was “inactive”.

Test system: Pseudomonas aeruginosa
Test: Antibacterial activity against Pseudomonas aeruginosa KB367 expressing IMP-1 assessed as inhibition of bacterial growth at 10 ug in absence of meropenem incubated overnight by paper disk method
Assay type: functional, organism-based
Details: dose 10.0 µg

Which “inhibition zone (IZ)” value does the source give for `CC/C=C/C1=C(CCC)C(=O)OC1=O` here?
The value was “inactive”.

Test system: Pseudomonas aeruginosa
Test: Antibacterial activity against Pseudomonas aeruginosa KB367 expressing IMP-1 assessed as inhibition of bacterial growth at 3 ug in absence of meropenem incubated overnight by paper disk method
Assay type: functional, organism-based
Details: dose 3.0 µg

For `CC/C=C/C1=C(CCC)C(=O)OC1=O`, which “inhibition zone (IZ)” value is on record?
Its value is “inactive”.

Test system: Pseudomonas aeruginosa
Test: Antibacterial activity against Pseudomonas aeruginosa KB367 expressing IMP-1 assessed as inhibition of bacterial growth at 1 ug in absence of meropenem incubated overnight by paper disk method
Assay type: functional, organism-based
Details: dose 1.0 µg

For `CC/C=C/C1=C(CCC)C(=O)OC1=O`, which “inhibition zone (IZ)” value is on record?
Its value is “inactive”.

Test system: Pseudomonas aeruginosa
Test: Antibacterial activity against Pseudomonas aeruginosa KB367 expressing IMP-1 assessed as inhibition of bacterial growth at 0.3 ug in absence of meropenem incubated overnight by paper disk method
Assay type: functional, organism-based
Details: dose 0.3 µg

With `CC/C=C/C1=C(CCC)C(=O)OC1=O` as the compound, how does the “inhibition zone (IZ)” value read?
The value was “inactive”.

Test system: Pseudomonas aeruginosa
Test: Antibacterial activity against Pseudomonas aeruginosa KB367 expressing IMP-1 assessed as inhibition of bacterial growth at 0.1 ug in absence of meropenem incubated overnight by paper disk method
Assay type: functional, organism-based
Details: dose 0.1 µg

For `CC/C=C/C1=C(CCC)C(=O)OC1=O`, which “inhibition zone (IZ)” value is on record?
Its value is “inactive”.

— ChEMBL document CHEMBL5236661, “A new selective inhibitor for IMP-1 metallo-β-lactamase, 3Z,5E-octa-3,5-diene-1,3,4-tricarboxylic acid-3,4-anhydride” (Bioorg Med Chem, 2023)
